Test results published in patent US12516010B2, “Crystal form of reduced coenzyme Q10 and preparation method therefor” ([…] BIOTECHNOLOGY (HAINAN) CO., LTD, priority 2023, dated 2026).

What was measured:
[1] = solubility in purified water; type: physicochemical; conditions: 25° C.
[2] = stability test: storage in a vacuum bag at 25° C. in the dark, HPLC analysis; type: physicochemical
Experimental: The crystal of reduced coenzyme Q10 obtained in Example 1 and the crystal obtained in Comparative Example 1 were each placed in a vacuum bag, and stored at 25° C. in the dark. The weight ratio of reduced coenzyme Q10 to oxidized coenzyme Q10 was calculated by the HPLC analysis, and the results are shown in Table 1.
Conditions for HPLC Analysis:
• Chromatographic column: (Agilent) ZORBAX Extend C18 4.6×150 mm, 5 um • Mobile phase: mobile phase A: acetonitrile, mobile phase B: isopropanol, mobile phase C: methanol • Detection wavelength: 290 nm • Flow rate: 1.5 mL/min • Column temperature: 35° C. • Injection concentration: 1 mg/mL • Injection volume: 20 μL

Structure (SMILES)	solubility in purified water [1]	weight ratio of reduced coenzyme Q10 to oxidized coenzyme Q10: oxidized coenzyme Q10 part ([2]; day 0, vacuum bag)	weight ratio of reduced coenzyme Q10 to oxidized coenzyme Q10: reduced coenzyme Q10 part ([2]; day 0, vacuum bag)	weight ratio of reduced coenzyme Q10 to oxidized coenzyme Q10: oxidized coenzyme Q10 part ([2]; day 15, vacuum bag)	weight ratio of reduced coenzyme Q10 to oxidized coenzyme Q10: reduced coenzyme Q10 part ([2]; day 15, vacuum bag)	weight ratio of reduced coenzyme Q10 to oxidized coenzyme Q10: oxidized coenzyme Q10 part ([2]; day 30, vacuum bag)	weight ratio of reduced coenzyme Q10 to oxidized coenzyme Q10: reduced coenzyme Q10 part ([2]; day 30, vacuum bag)	weight ratio of reduced coenzyme Q10 to oxidized coenzyme Q10: oxidized coenzyme Q10 part ([2]; day 180, vacuum bag)	weight ratio of reduced coenzyme Q10 to oxidized coenzyme Q10: reduced coenzyme Q10 part ([2]; day 180, vacuum bag)	weight ratio of reduced coenzyme Q10 to oxidized coenzyme Q10: oxidized coenzyme Q10 part ([2]; day 360, vacuum bag)	weight ratio of reduced coenzyme Q10 to oxidized coenzyme Q10: reduced coenzyme Q10 part ([2]; day 360, vacuum bag)
COc1c(O)c(C)c(C/C=C(\C)CC/C=C(\C)CC/C=C(\C)CC/C=C(\C)CC/C=C(\C)CC/C=C(\C)CC/C=C(\C)CC/C=C(\C)CC/C=C(\C)CCC=C(C)C)c(O)c1OC [Example 2, reduced coenzyme Q10]	0.5 % by weight										
COc1c(O)c(C)c(C/C=C(\C)CC/C=C(\C)CC/C=C(\C)CC/C=C(\C)CC/C=C(\C)CC/C=C(\C)CC/C=C(\C)CC/C=C(\C)CC/C=C(\C)CCC=C(C)C)c(O)c1OC [Example 1, reduced coenzyme Q10]	0.5 % by weight	0.40	99.18	0.50	99.00	0.80	98.01	1.10	97.90	1.94	97.33
COc1c(O)c(C)c(C/C=C(\C)CC/C=C(\C)CC/C=C(\C)CC/C=C(\C)CC/C=C(\C)CC/C=C(\C)CC/C=C(\C)CC/C=C(\C)CC/C=C(\C)CCC=C(C)C)c(O)c1OC [Comparative Example 1, reduced coenzyme Q10]		0.65	98.20	1.63	97.10	5.47	93.40	8.8	89.60	17.0	82.0
